Test results reported in patent US4994472A, “1-(pyridinylamino)-2-pyrrolidinones as pain relievers” (Hoechst-Roussel Pharmaceuticals Incorporated, priority 1989, dated 1991).

Columns and labels:
[1] = tested on: phenyl-para-quinone induced writhing; assay: phenyl-para-quinone writhing assay in mice (analgesia); assay type: in vivo; settings: 20 mg/kg s.c., expressed as % decrease in writhing
Excerpt: Exptl. […] Presented in Table I is the analgesic effect of one of the compounds of the invention expressed as the % decrease in writhing at a given dose.

[2] = tested on: Scopolamine Induced Memory Deficit; assay: Dark Avoidance Assay (reversal of scopolamine induced memory deficit); assay type: in vivo; settings: mice, retest after 24 hours
Protocol: In this assay, mice are tested for their ability to remember an unpleasant stimulus for a period of 24 hours. A mouse is placed in a chamber that contains a dark compartment; a strong incandescent light drives it to the dark compartment, where an electric shock is administered through metal plates on the floor. The animal is removed from the testing apparatus and tested again, 24 hours later, for the ability to remember the electric shock. If scopolamine, an anticholinergic that is known to cause memory impairment, is administered before an animal's initial exposure to the test chambers, the animal re-enters the dark compartment shortly after being placed in the test chamber 24 hours later. The effect of scopolamine is blocked by an active test compound, resulting in a greater interval before re-entry into the dark compartment. The results for an active compound are expressed as the percent of a group of animals in which the effect of scopolamine is blocked, as manifested by an increased interval between being placed in the test chamber and re-entering the dark compartment. The activity in the assay of some of the compounds of the invention are given below in Table 2.

Question: With O=C1CCCN1Nc1ccncc1 [1-(4-pyridinylamino)-2-pyrrolidinone, 1-(4-Pyridinylamino)-2-pyrrolidinone] as the compound, how does the “% Inhibition of Writhing” value [1] read?
Answer: -56%

Question: Which “% of Animals With Scopolamine Induced Memory Deficit Reversal” value ([2]; .3 mg/kg s.c.) does the source give for CCCN(c1ccncc1)N1CCCC1=O.O=C(O)C(=O)O [1-(Propyl-4-pyridinylamino)-2-pyrrolidinone oxalate] here?
Answer: 33%

Question: Which “% of Animals With Scopolamine Induced Memory Deficit Reversal” value ([2]; .63 (mg/kg of body wt) s.c.) does the source give for Nc1c2c(nc3ccccc13)CCCC2 [Tacrine, reference compound] here?
Answer: 13%
